Results on six compounds are retold here after US20260347309A1 (priority 2022, published 2026).

The conditions of series [1]: cited from earlier work.
The subject of a further series is AT-84-E7. In words: BrdU incorporation / cell proliferation assay in AT-84-E7. The series is classed as cell-based. Particulars: for G0/G1 cell cycle arrest / S phase: BrdU, alone. The protocol: (§1) [LEFT OUT]. Louis, MO) (27).
(§2) Cell cycle progression was analyzed on the basis of BrdU incorporation following […] cell staining with BrdU-APC and 7-AAD using BD Pharmingen BrdU Flow Kit. (BD, Franklin Lakes, NJ) according to the manufacture's protocol. Cells are analyzed using flow cytometry. Cell proliferation is assessed by using MTT [3-(4,5-dimethylthiazol-2-yl)-2,5-diphenyltetrazolium bromide]. First, cells are seeded in 96-well plate and cultured for 2-3 days. Next, culture media is replaced with fresh media containing 0.5 mg/ml of MTT (Sigma) and the plates are incubated for 4 hours at 37 °C. Then, purple formazan crystals are dissolved in lysis buffer (4 mM HCl and 0.1% NP-40 in isopropanol) and the absorbance is recorded on a TECAN infiniteM200 microplate reader (Tecan, Männedorf, Switzerland) at a wavelength of 570 nm with absorbance at 650 nm as reference.

A further series concerns MHC. As to the kind of experiment: surface expression of MHC (flow cytometry), multiple cell lines. On the technique in general: In flow cytometry, cells or beads pass a laser one at a time.
A further series deals with MHC class II. In words: MHC class II surface expression on RAW264.7.
Another series relates to B16-OVA tumor. In words: mouse tumor model B16-OVA, IP treatment. Particulars: in combination with anti-PDL1 immunotherapy; B16-OVA tumors.
Series [2] deals with B16-OVA cells / B3Z cells. As to the kind of experiment: B3Z activation assay, recognition of OVA model tumor antigen on B16-OVA cells. It counts as cell-based. The settings on record: B16-OVA cells treated (100 μM, 24 hours) then B3Z co-culture 24 h; read-out: increase in recognition of model tumor antigen by B3Z cells. The procedure: B16-OVA cells are seeded into a 96-well plate and treated with 100 μM […], […] or racemic rimantadine for 24 hours, prior to addition of B3Z cells. After 24 hours of co-culture, medium is removed and 100 μl of lysis buffer [0.155 mM chlorophenol red β-D-galactopyranoside (CPRG) (Roche), 0.125% Nonidet P-40 Alternative (EMDCalbiochem), and 9 mM MgCl2 (Sigma) in PBS] are added. After incubation for 4 hours at 37 °C, the absorbance at 570 nm is determined on a TECAN infinite M200 microplate reader.

The next series relates to B16-OVA. As to the kind of experiment: BrdU incorporation / cell proliferation assay in B16-OVA. It counts as cell-based. Particulars: for G0/G1 cell cycle arrest / S phase: BrdU, alone. The procedure: as §1, §2
A general note: Dividing cells build labelled thymidine or BrdU into new DNA.

In another series the test system is Tau. In words: RTqPCR gene expression of Tau. The series is classed as cell-based. The protocol: (§3) Total RNA is extracted using TRIzol Reagent (Invitrogen) and reverse transcribed with qScript cDNA Synthesis Kit (Quanta BioSciences, Beverly, MA) according to the manufacturer's instructions. Quantitative PCR analysis is conducted by using KAPA SYBR […] FAST (KAPA Biosystems, Wilmington, MA) on the 7900HT Fast Real-Time PCR System (Applied Biosystems, Foster City, CA).
For orientation: In qPCR the cycle at which signal appears reflects the starting amount.

For a further series, the system named is tumor. In words: mouse cancer models, general anti-tumor activity. The series is classed as in vivo. Particulars: alone.
The next series has as its system M2 transmembrane channel. The settings on record: cited from earlier work.
In series [3] the test system is glutamate, GABA, dopamine receptors. In words: in vivo SPECT receptor binding selectivity (Examples 4 and 5). More on the design: species or system mouse.
Series [4] is described as follows: in vivo CNS adverse effects / toxicity (Examples 4 and 5). Also on record: species or system mouse.
For series [5], the system named is murine and human cell lines engineered to express HPV16 E5. As to the kind of experiment: cell cycle arrest in cell lines engineered to express HPV16 E5. The settings on record: cells expressing HPV16 E5. It counts as cell-based. The protocol: as §2
The test system of the next series is MHC class I. In words: MHC class I surface expression on RAW264.7.
In series [6] the target is T1, NR1/NR2B ionotropic receptor (Homo sapiens, UniProt Q05586+Q13224).
T1 construct: expressed in transfected cells
T1 sequence (Q13224 27-1484, other chains not shown): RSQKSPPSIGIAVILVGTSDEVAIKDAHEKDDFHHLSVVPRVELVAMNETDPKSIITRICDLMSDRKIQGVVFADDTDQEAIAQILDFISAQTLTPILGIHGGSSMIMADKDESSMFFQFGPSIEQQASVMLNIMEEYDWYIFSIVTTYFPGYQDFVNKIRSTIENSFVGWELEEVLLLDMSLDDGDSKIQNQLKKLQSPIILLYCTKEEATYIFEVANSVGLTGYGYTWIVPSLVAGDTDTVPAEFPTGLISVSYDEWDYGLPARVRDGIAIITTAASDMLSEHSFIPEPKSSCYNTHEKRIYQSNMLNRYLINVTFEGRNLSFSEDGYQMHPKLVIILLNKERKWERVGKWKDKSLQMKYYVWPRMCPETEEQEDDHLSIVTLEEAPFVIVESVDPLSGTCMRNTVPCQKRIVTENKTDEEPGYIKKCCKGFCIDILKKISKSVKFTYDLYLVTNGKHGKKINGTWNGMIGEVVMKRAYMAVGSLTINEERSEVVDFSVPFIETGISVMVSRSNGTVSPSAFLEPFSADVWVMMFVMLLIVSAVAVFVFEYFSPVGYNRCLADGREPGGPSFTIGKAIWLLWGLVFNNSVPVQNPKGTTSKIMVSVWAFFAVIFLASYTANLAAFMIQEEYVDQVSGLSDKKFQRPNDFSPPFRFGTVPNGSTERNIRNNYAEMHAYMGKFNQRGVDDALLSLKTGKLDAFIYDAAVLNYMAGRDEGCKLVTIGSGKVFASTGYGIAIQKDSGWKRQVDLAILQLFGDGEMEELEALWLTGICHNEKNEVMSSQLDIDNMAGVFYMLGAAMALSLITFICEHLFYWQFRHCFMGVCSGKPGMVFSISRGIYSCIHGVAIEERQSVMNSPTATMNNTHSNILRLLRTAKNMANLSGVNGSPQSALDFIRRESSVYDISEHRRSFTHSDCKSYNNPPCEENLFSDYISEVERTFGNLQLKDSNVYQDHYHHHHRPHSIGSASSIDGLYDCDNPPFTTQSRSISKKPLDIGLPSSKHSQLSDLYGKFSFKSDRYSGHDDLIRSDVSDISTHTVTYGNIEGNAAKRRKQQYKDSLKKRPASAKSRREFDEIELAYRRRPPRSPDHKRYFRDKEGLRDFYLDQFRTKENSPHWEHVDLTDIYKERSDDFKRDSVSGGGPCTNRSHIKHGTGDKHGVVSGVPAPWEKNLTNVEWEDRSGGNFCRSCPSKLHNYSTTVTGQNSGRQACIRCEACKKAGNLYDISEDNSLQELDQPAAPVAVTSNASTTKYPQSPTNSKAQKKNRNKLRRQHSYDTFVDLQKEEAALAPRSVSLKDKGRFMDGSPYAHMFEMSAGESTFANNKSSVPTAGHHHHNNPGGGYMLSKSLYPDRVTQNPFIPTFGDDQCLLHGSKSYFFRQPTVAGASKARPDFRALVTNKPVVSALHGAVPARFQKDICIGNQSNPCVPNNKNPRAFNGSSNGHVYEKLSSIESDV
As to the kind of experiment: ScreenPatch IonWorks Barracuda electrophysiology assay on NR1/NR2B. Particulars: for relative inhibition of NR2B: comparison of enantiomers and racemate, words. The series is classed as cell-based. The protocol:
(§4) Test articles were evaluated for functional effects on ion channels.
(§5) The final DMSO concentration was 0.6%.
(§6) Adjusted to pH 7.2 with CsOH.

In the next series the test system is MHC I. The settings on record: E5-positive AT-84-E7.
A further series has as its system Stathmin. As to the kind of experiment: RTqPCR gene expression of Stathmin. It counts as cell-based. The protocol:
as §3

The next series deals with CAL-27 cells. As to the kind of experiment: CAL-27 in vitro MTT proliferation assay. It counts as cell-based, human. Particulars: 0, 100, 250 or 500 μM, 24 or 48 hours. The protocol: On day 1, CAL-27 cells were seeded in a 96-well plate (2-4×10^3 cells/well, medium 100 μl/well) and left overnight to allow the cells to attach to the plate. On day 2, varying concentrations of rimantadine (0 μM, 100 μM, 250 μM, or 500 μM) were added to the cells and allowed to incubate for 24 hours or 48 hours. On either day 3 or 4, the culture media was aspirated, and 100 μl/well of MTT solution (comprising an MTT concentration of 0.5 mg/ml; formed by dilution of thiazolyl blue tetrazolium bromide solution (SIGMA, Cat #M2128) with stock solution (5 mg/ml in PBS (−20 °C)) was added to the culture media. The cells were incubated in a CO2 incubator at 37 °C for 3 hours, and the MTT solution was aspirated. 100 μl/well of DMSO was then added and the cells were incubated for about 5 minutes. A OD570 nm (Ref 650 nm) was then read. Results of the experiment are shown in FIG. 2.

The target of series [7] is T2, NR1/NR2A ionotropic receptor (Homo sapiens, UniProt Q05586+Q12879).
T2 construct: expressed in transfected cells
T2 sequence (Q12879 23-1464, other chains not shown): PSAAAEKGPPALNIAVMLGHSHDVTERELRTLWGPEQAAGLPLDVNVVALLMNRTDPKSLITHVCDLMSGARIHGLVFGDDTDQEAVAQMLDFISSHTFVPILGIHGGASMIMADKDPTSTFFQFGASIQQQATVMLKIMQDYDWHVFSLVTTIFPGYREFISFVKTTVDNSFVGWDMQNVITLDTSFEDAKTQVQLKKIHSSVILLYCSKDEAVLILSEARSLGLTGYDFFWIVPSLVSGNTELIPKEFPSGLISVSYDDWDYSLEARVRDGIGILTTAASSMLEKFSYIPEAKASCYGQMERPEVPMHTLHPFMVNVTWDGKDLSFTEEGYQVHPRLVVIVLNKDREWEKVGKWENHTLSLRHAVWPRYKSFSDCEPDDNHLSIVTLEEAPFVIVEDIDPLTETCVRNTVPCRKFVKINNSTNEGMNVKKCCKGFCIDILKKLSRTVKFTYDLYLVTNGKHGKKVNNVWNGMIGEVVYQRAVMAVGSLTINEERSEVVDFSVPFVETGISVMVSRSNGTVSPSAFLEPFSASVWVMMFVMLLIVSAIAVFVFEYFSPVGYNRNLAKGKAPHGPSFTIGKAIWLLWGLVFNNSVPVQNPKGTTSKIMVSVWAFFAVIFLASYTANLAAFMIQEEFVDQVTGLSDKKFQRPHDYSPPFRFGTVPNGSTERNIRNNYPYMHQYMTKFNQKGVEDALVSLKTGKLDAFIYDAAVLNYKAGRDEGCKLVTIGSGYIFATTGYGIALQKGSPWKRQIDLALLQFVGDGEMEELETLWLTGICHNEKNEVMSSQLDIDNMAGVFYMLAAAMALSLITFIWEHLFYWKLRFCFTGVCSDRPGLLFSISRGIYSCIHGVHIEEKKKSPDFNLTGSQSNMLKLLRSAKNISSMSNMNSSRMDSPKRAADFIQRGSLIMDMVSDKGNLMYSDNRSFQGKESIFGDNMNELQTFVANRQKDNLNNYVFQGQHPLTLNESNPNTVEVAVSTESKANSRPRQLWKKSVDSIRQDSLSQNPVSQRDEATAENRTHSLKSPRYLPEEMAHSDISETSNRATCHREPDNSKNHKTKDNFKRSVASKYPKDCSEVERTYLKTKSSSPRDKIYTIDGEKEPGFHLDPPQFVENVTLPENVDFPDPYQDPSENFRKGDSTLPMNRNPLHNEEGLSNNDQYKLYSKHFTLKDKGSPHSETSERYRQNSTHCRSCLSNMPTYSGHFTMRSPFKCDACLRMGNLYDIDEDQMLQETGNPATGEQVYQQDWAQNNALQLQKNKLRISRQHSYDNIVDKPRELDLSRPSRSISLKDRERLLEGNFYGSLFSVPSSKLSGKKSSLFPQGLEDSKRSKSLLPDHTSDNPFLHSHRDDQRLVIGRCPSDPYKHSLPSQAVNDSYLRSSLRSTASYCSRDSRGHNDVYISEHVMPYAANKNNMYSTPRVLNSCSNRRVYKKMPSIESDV
In words: ScreenPatch IonWorks Barracuda electrophysiology assay on NR1/NR2A. The series is classed as cell-based. The procedure:
as §4, §5, §6

For a further series, the system named is D2/3 dopamine receptor. Particulars: radioligand; cited from earlier work.
The test system of the next series is CAL-27. As to the kind of experiment: BrdU incorporation and proliferation assays in CAL-27. The series is classed as cell-based, human. Particulars: alone. The protocol: as §1, §2
Another series concerns CAL-33. As to the kind of experiment: BrdU incorporation and proliferation assays in CAL-33. The series is classed as cell-based, human. The settings on record: alone. The protocol: as §1, §2
In the next series the test system is SCC-47. In words: BrdU incorporation and proliferation assays in SCC-47. It counts as cell-based, human. Particulars: alone. The protocol: as §1, §2
[8] abbreviates: agonist format, first application, data not shown.

As for `CC(N)C12CC3CC(CC(C3)C1)C2` (racemic) [racemic rimantadine], the side effects result in series [1] (currently prescribed doses) was “central nervous system (CNS) side effects, sleep side effects, gastrointestinal side effects, and atropinic side effects”. The “most commonly cited toxicities for discontinuation of treatment” value in series [1] (in vivo) was “Anxiety and insomnia”.

As for `C[C@@H](N)C12CC3CC(CC(C3)C1)C2` [2-R rimantadine], in the series with AT-84-E7, the cell proliferation result was “Suppression of cell proliferation”, the “G0/G1 cell cycle arrest” value is on record as “significant increases in G0/G1 cell cycle arrest” and the S phase entry is on record as “significant decreases in S phase”. For the same compound, in the series on MHC, the “surface expression of MHC” value is reported as “Significant increases in surface expression of MHC”. For the same compound, the “MHC class II surface expression” value in the series with MHC class II is “significant increases”. Also, the survival entry in the series with B16-OVA tumor is “significant improvement in survival”. Moreover, the fold induction at 100 µM in series [2] turned out to be 3. Moreover, in the series on B16-OVA, the cell proliferation result is “Suppression of cell proliferation”, the “G0/G1 cell cycle arrest” value is listed as “significant increases in G0/G1 cell cycle arrest” and the S phase entry was “significant decreases in S phase”. Besides, in the series with Tau, the Tau gene expression entry is given as “Decreases in microtubule associated molecule Tau”. In addition, in the series on tumor, the anti-tumor activity result is “significantly decreased tumor growth”. Besides, in the series with M2 transmembrane channel (one study, R- vs S-enantiomer), the “binding affinity for M2 channel pore” value is “greater affinity than the S-enantiomer”. Also, in [3] (Example 4, 10-20 mg/kg IP daily 7 days), the “binding selectivity or agonistic behavior to glutamate, GABA, dopamine receptors” value is “significantly higher binding selectivity or agonistic behavior”. The “incidence of central nervous system adverse effects” value in series [4] (Example 4) was “higher incidence of central nervous system adverse effects”. Moreover, the cell cycle arrest result in series [5] was “induce cell cycle arrest”. The “MHC class I surface expression” value in the series with MHC class I is given as “significant increases”. Besides, the “relative inhibition of NR2B” value in [6] is reported as “greater ability to inhibit NR2B as compared to racemic rimantadine”. Further, in the series with MHC I, the “cell surface expression of MHC I” value was “restored”. Moreover, the Stathmin gene expression entry in the series on Stathmin is on record as “significant decreases”.

In the case of `C[C@H](N)C12CC3CC(CC(C3)C1)C2` [2-S rimantadine], the cell proliferation result in the series on AT-84-E7 and in the series with B16-OVA was “Suppression of cell proliferation” in each case. Also, the “G0/G1 cell cycle arrest” value with AT-84-E7 and with B16-OVA was “significant increases in G0/G1 cell cycle arrest” in each case. Also, the S phase entry with AT-84-E7 and in the series on B16-OVA was “significant decreases in S phase” each time. Moreover, in the series on MHC, the “surface expression of MHC” value is listed as “Significant increases in surface expression of MHC”. Besides, the “MHC class II surface expression” value with MHC class II is listed as “significant increases”. In the series on B16-OVA tumor, the survival entry was “significant improvement in survival”. Further, in series [2], the fold induction at 100 µM stood at 3. In the series on Tau, the Tau gene expression result is “Decreases in microtubule associated molecule Tau”. In addition, the anti-tumor activity entry with tumor is “significantly decreased tumor growth”. The “binding selectivity or agonistic behavior to glutamate, GABA, dopamine receptors” value in series [3] (Example 5, 10-20 mg/kg IP daily 7 days) was “significantly higher binding selectivity or agonistic behavior”. The “toxicity compared to 2-R rimantadine” value in series [4] (Example 4, taken together with Example 2) is “significantly less toxic”; in series [4] (Example 5, taken together with Example 2) it was “significantly less toxic”. The “incidence of central nervous system adverse effects” value in series [4] (Example 5) is reported as “higher incidence of central nervous system adverse effects”. The cell cycle arrest entry in [5] is listed as “induce cell cycle arrest”. In the series with MHC class I, the “MHC class I surface expression” value was “significant increases”. For the same compound, the “relative inhibition of NR2B” value in [6] is “to a lesser degree as compared to 2-R rimantadine and racemic rimantadine”. Also, the “cell surface expression of MHC I” value with MHC I was “restored”. Besides, the “cancer cell proliferation compared to R-rimantadine or racemic rimantadine” value with CAL-27 cells is listed as “enhanced or equivalent cancer cell proliferation as compared to R-rimantadine or racemic rimantadine”. In addition, the Stathmin gene expression result with Stathmin is recorded as “significant decreases”.

As for `NC12CC3CC(CC(C3)C1)C2` [Amantadine], the “agonist effect: activation of NMDA receptors” value in [7] (setting [8]) and in series [6] (setting [8]) was “Neither test articles nor amantadine had produced significant activation of NMDA receptors” each time. In series [7] (suggests open channel block mechanism of inhibition), the “shift in potency for steady state vs peak currents” value is “Leftward shift in amantadine potency for steady state currents measurements”.

For the compound `CCN1CCC[C@H]1CNC(=O)c1c(OC)ccc(I)c1O` [IBZM], the “affinity for the D2/3 dopamine receptor” value in the series with D2/3 dopamine receptor is “high affinity”.

In the case of `CC(N)C12CC3CC(CC(C3)C1)C2` (stereo not shown) [rimantadine], the cell cycle arrest entry with CAL-27, with CAL-33 and in the series on SCC-47 was “Significant cell cycle arrest” in each case. In addition, the proliferation entry in the series on CAL-27, in the series with CAL-33 and in the series on SCC-47 was “decreased proliferation” throughout. The “inhibition of influenza activity” value in the series on M2 transmembrane channel (by binding M2 transmembrane channel and blocking proton transport) was “inhibits influenza activity”.
